# Biological target: T1, MRSA pyruvate kinase (PK) (Staphylococcus aureus, UniProt Q2FG40)
# T1 construct: gene pyk; His-tagged MRSA PK from S. aureus USA300 LAC *, pET-28a, expressed in E. coli
# T1 sequence (Q2FG40 1-585): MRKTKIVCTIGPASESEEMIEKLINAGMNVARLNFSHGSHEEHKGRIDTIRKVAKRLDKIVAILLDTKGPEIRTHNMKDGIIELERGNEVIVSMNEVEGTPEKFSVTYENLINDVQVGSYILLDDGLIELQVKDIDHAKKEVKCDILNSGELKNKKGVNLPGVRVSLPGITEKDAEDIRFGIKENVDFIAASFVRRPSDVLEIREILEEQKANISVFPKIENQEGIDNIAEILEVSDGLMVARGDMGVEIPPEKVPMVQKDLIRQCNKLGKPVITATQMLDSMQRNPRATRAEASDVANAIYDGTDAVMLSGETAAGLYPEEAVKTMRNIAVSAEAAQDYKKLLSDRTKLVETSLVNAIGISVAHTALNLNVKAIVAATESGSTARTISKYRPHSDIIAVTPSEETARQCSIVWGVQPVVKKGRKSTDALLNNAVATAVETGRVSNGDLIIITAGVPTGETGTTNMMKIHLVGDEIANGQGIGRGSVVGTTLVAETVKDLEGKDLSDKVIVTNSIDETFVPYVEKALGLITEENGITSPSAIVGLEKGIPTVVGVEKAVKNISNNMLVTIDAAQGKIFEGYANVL
# Test: Kinase-Glo luminescence assay of ATP formed by purified PK from PEP and ADP
# Format: biochemical
row,IC50,Structure (SMILES)
1,1600 nM,"Oc1ccc2c(-c3c4cc(F)sc4cc4[nH]c5cc(O)ccc5c34)c[nH]c2c1 [3c, 2-Fluoro-4-(6-hydroxy-1H-indol-3-yl)-9H-thieno[2,3-b]carbazol-7-ol]"
2,2100 nM,"Fc1cc2c(-c3c[nH]c4ccc(Cl)cc34)c3c(cc2s1)[nH]c1ccc(Cl)cc13 [3f, 6-Chloro-4-(5-chloro-1H-indol-3-yl)-2-fluoro-9H-thieno[2,3-b]carbazole]"
3,2300 nM,"Fc1cc2cc3[nH]c4cc(Cl)ccc4c3c(-c3c[nH]c4cc(Cl)ccc34)c2s1 [4f, 7-Chloro-10-(6-chloro-1H-indol-3-yl)-2-fluoro-5H-thieno[3,2-b]carbazole]"
4,3500 nM,"Fc1cc2c(-c3c[nH]c4ccc(Br)cc34)c3[nH]c4ccc(Br)cc4c3cc2s1 [6d, 8-Bromo-4-(5-bromo-1H-indol-3-yl)-2-fluoro-5H-thieno[3,2-b]carbazole]"
